Assay results taken from patent US12653785B2, “Compositions and methods for administering a YAP1/WWRT1 inhibiting composition and a GLS1 inhibiting composition” (UNIVERSITY OF PITTSBURGH—OF THE COMMONWEALTH SYSTEM OF …, priority 2020, dated 2026).

Tests used:
[1] = Encapsulation efficiency, loading and release kinetics of drugs from PLGA microparticles; assay type: physicochemical; conditions: different formulations (single drug or combination); 0.2% tween 80, 37° C.
Experimental: The morphology of the microparticles was characterized using scanning electron microscopy (SEM—JEOL JSM6510) and the average size of the blank microparticles was determined using dynamic light scattering (Malvern, Worcestershire, UK). The release kinetics of the drugs from PLGA microparticles was determined by incubating 1 mg of microparticles with or without drugs in 1 mL of 0.2% tween 80 (Fisher Scientific, Pittsburgh, PA) in centrifuge tubes on end-over-end rotator at 37° C. Every day for 10 days, the tubes were centrifuged at 2000 g for 5 min, 0.8 mL of the supernatant was retrieved and frozen at −20° C., and 0.8 mL of fresh 0.2% tween 80 was replaced in the tubes. These tubes were then returned to the incubator.
In order to assess the concentration of verteporfin, UV-vis spectroscopy plate reader (SpectraMax, Molecular Devices, Sunnyvale, CA) was utilized. […] Using this wavelength, a standard curve was plotted, and the concentration of the released verteporfin from microparticles was determined. The cumulative amount of verteporfin released from the microparticles was quantified and utilized to determine the percentage encapsulation efficiency and percentage loading.
In order to assess the concentration of CB-839, a high-performance liquid chromatography (HPLC Ultimate 3000, Fisher Scientific, Pittsburgh, PA) protocol was developed. […]

[2] = test system: monocrotaline rat model of PH; conditions: drugs delivered systemically; cited from earlier work

SMILES	duration of sustained release from PLGA microparticles [1]	reversal of PH (hemodynamic and histopathologic manifestations) [2]
O=C(Cc1cccc(OC(F)(F)F)c1)Nc1ccc(CCCCc2nnc(NC(=O)Cc3ccccn3)s2)nn1 [CB-839]	10 days	substantial reversal
CN(C)c1ccc(C2Nc3ccc4ccccc4c3C3=C2C(=O)CC(C)(C)C3)cc1Br (centres unmarked) [C968, 5-(3-Bromo-4-(dimethylamino)phenyl)-2,2-dimethyl-2,3,5,6-tetrahydrobenzo[a]phenanthridin-4(1H)-one]		substantial reversal
C=Cc1c(C)c2cc3nc(cc4[nH]c(cc5nc(cc1[nH]2)C(C)=C5CCC(=O)O)c(CCC(=O)OC)c4C)[C@@]1(C)C3=CC=C(C(=O)OC)[C@H]1C(=O)OC [verteporfin, 3-[(23S,24R)-14-ethenyl-5-(3-methoxy-3-oxopropyl)-22,23-bis(methoxycarbonyl)-4,10,15,24-tetramethyl-25,26,27,28-tetraazahexacyclo[16.6.1.1^3,6.1^8,11.1^13,16.0^19,24]octacosa-1,3,5,7,9,11(27),12,14,16,18(25),19,21-dodecaen-9-yl]propanoic acid]	6 days	substantial reversal
